Reference: patent US3955959A, “Herbicide for use in transplanted rice” (priority 1974, dated 1976)
In brackets after ≈: the same amount, converted by molar mass. Several values for one entry are separate records, joined by “and”; a condition that tells them apart may be missing. Equal entries are not always repeated.

Tests used:
transplanted rice = test: Example 1 field test, rice yield; assay type: in vivo, rice (Watanabe variety); conditions: in vivo
From the text: (§1) In the field test 48 day-old seedlings (Watanabe variety) were transplanted to plots 2.5 × 6 m. seeded with the weed seeds indicated in Table 1. At 5 and 10 DAT periods, the herbicides were applied to the plants (now at the 1.2 and 2.0 leaf stage, respectively, of grass weed) at the indicated rate in kilograms per hectare (kg/ha). The weed control and rice injury results for 3 replications are reported in percentages as of the indicated times of observation. The percentages given in the "Perennials" column are based on the weight of the weeds at 63 DAT, i.e., 42 gms/3.6 m^2 for the weedy check.

[1] = Example 10 fish toxicity, Japanese protocol; assay type: in vivo, carp; conditions: carp, in vivo, read-out: Medium Lethal Concentration
Description: In view of the importance of fish toxicological considerations, tests were conducted, using carp according to the Japanese protocol, to compare toxicity data for Herbicides A and B; results of those tests are shown in Table 10.

[2] = system: Perennials Ek and Sa (Eleocharis kuroguwai, Sagittaria aginashi); test: Example 1 field test, perennial weed control, Iri, Korea; assay type: in vivo; conditions: for % Weed Control (Perennials Ek and Sa): weed weight at 63 DAT
From the text: as §1

[3] = system: Mv (Monochoria vaginalis); test: Example 1 field test, weed control in transplanted rice, Iri, Korea; assay type: in vivo; conditions: av. of 36 and 63 DAT
From the text: as §1

Aj (Aneiliema japonica) = test: as above; assay type: in vivo; conditions: av. of 36 and 63 DAT
From the text: as §1

[4] = system: Eo (Echinochloa oryzicola); test: as above; assay type: in vivo; conditions: av. of 36 and 63 DAT
From the text: as §1

Ci (Cyperus iria) = test: as above; assay type: in vivo; conditions: av. of 36 and 63 DAT
From the text: as §1

Dapog transplanted rice [5] = test: Example 3 field test, rice yield; assay type: in vivo; conditions: in vivo
Description: (§2) In the tests described in the tables below, the herbicides were formulated and used in granular form in conventional manner. […] The commercial herbicide used was a granular product having 5% active ingredient.
(§3) In the field tests of the herbicide of this invention with transplanted rice, the rice seedlings were grown in conventional manner, by seeding the rice in a typical seedbed of sandy loam to clay soil of the country wherein the test was conducted. For laboratory and greenhouse work the seedlings were obtained by seeding rice in a mixture of soil, e.g., Ray silt loam, and peat in wood flats. For purposes of testing the herbicides on younger rice seedlings (infant or Dapog) the rice was usually allowed to grow for 6-15 days before lifting for transplanting. Older (ordinary) rice plants were usually grown for a period of about 2-3 weeks, or as much as about 7 weeks before lifting. Since the period of growth is dependent upon climatic conditions, a better measure of when to transplant the rice seedling is the leaf stage of growth; for infant or Dapog rice the seedling is lifted at the 1.5-2 leaf stage of growth, and for ordinary seedlings at the 2.5-5 leaf stage. The seedlings were then transplanted to the test plots for evaluation of the herbicide for injury against weed species present with the transplanted rice. The herbicides were then applied to the growth medium of the weeds and transplant rice, either preemergent or postemergent with respect to the weeds and postemergent with respect to the transplanted rice. Application times are designated in the tables as "DAT", meaning "days after transplant". Application rates given in the tables refer to the amount of active ingredient used.
(§4) Eleven (11) day-old Dapog seedlings were transplanted and treated at 5 DAT and 14 DAT with Herbicides A and B. The plots were overseeded with Echinochloa crusgalli seeds at 2 kgs/ha prior to transplanting. Treatments were replicated four times.

Dapog transplanted rice [6] = test: Example 3 field test, crop injury; conditions: for Crop Injury (%): obs. 42 DAT
Description: as §2, §3, §4

[7] = system: pigweed, annual morning glory, smartweed, cocklebur, Italian ryegrass, crop rye, sorghum, quack grass and nutsedge; test: Example 9 soil life bioassay, greenhouse; assay type: in vivo
Description: In this example, additional tests were run to compare the relative soil life of Herbicides A and B under greenhouse conditions.
In the soil life tests, a standardized procedure involving a series of bioassay periods, or cycles, was used. In the procedure, an arbitrary, selected mixture of four grasses, four broadleaf weeds and a sedge were seeded into Ray silt loam soil previously prepared and treated with the herbicide under test and periodically watered by sub-irrigation. After a six-week bioassay period, (i.e., the first cycle), the plants were evaluated visually for herbicidal activity. That soil in which at least 75% of three or more grass and/or broadleaf species or of the sedge alone were controlled at the end of the cycle, was advanced to a second cycle, or six-week bioassay period. The second cycle involved the same procedure as the first cycle, except that additionally, the equivalent of 50 lbs/ac (56.05 Kgs/ha) of nitrogen was mixed into the cover layer of the soil which was reseeded with the mixture of plants mentioned earlier. The plants were evaluated for herbicidal activity at the end of this six-week period and, again, the soil in which at least 75% of the grasses or broadleaf species or of the sedge alone were controlled was advanced to a third cycle. The foregoing procedure was repeated until herbicidal activity fell below that required for initiation of a new cycle.
For purposes of the soil life tests, the following spectrum of plants were used as indicators: pigweed, annual morning glory, smartweed, cocklebur, Italian ryegrass, crop rye, sorghum, quack grass and nutsedge.

[8] = system: weeds in transplanted rice; test: Field tests / general herbicidal activity in transplanted rice; assay type: in vivo

CCCCOCN(C(=O)CCl)c1c(C)cccc1C(C)(C)C [Herbicide A, n-(butoxymethyl)-6'-tert-butyl-2-chloro-o-acetotoluidide]
Yield (% of Hand-weeded Check) (transplanted rice): 102% and 101% and 100% and 98% and 99%
LC50 at 48 h ([1]; 48 hours): 1.8 µg/mL (≈ 5.52 µM)
LC50 at 96 h ([1]; 96 hours): 1.4 µg/mL (≈ 4.3 µM)
% Weed Control (Perennials Ek and Sa) ([2]; 5 DAT, 1.0 kg/ha): 68%
% Weed Control (Perennials Ek and Sa) ([2]; 5 DAT, 2.0 kg/ha): 100%
% Weed Control (Perennials Ek and Sa) ([2]; 5 DAT, .25 kg/ha): 0%
% Weed Control (Perennials Ek and Sa) ([2]; 5 DAT, .5 kg/ha): 55%
% Weed Control (Perennials Ek and Sa) ([2]; 10 DAT, 1.0 kg/ha): 0%
% Weed Control (Perennials Ek and Sa) ([2]; 10 DAT, 2.0 kg/ha): 0%
% Weed Control (Perennials Ek and Sa) ([2]; 10 DAT, .25 kg/ha): 0%
% Weed Control (Perennials Ek and Sa) ([2]; 10 DAT, .5 kg/ha): 2%
perennial control ([2]; at 14 DAT and at rates less than 2 kgs/ha applied 5 DAT): less than adequate
% Weed Control (Mv) ([3]; 5 DAT, 1.0 kg/ha): 89%
% Weed Control (Mv) ([3]; 5 DAT, 2.0 kg/ha): 82%
% Weed Control (Mv) ([3]; 5 DAT, .25 kg/ha): 72%
% Weed Control (Mv) ([3]; 5 DAT, .5 kg/ha): 80%
% Weed Control (Mv) ([3]; 10 DAT, 1.0 kg/ha): 72%
% Weed Control (Mv) ([3]; 10 DAT, 2.0 kg/ha): 83%
% Weed Control (Mv) ([3]; 10 DAT, .25 kg/ha): 53%
% Weed Control (Mv) ([3]; 10 DAT, .5 kg/ha): 80%
% Weed Control (Aj) (Aj (Aneiliema japonica); 5 DAT, 1.0 kg/ha): 81%
% Weed Control (Aj) (Aj (Aneiliema japonica); 5 DAT, 2.0 kg/ha): 86%
% Weed Control (Aj) (Aj (Aneiliema japonica); 5 DAT, .25 kg/ha): 66%
% Weed Control (Aj) (Aj (Aneiliema japonica); 5 DAT, .5 kg/ha): 84%
% Weed Control (Aj) (Aj (Aneiliema japonica); 10 DAT, 1.0 kg/ha): 79%
% Weed Control (Aj) (Aj (Aneiliema japonica); 10 DAT, 2.0 kg/ha): 88%
% Weed Control (Aj) (Aj (Aneiliema japonica); 10 DAT, .25 kg/ha): 73%
% Weed Control (Aj) (Aj (Aneiliema japonica); 10 DAT, .5 kg/ha): 79%
% Weed Control (Eo) ([4]; 5 DAT, 1.0 kg/ha): 91%
% Weed Control (Eo) ([4]; 5 DAT, 2.0 kg/ha): 94%
% Weed Control (Eo) ([4]; 5 DAT, .25 kg/ha): 86%
% Weed Control (Eo) ([4]; 5 DAT, .5 kg/ha): 93%
% Weed Control (Eo) ([4]; 10 DAT, 1.0 kg/ha): 90%
% Weed Control (Eo) ([4]; 10 DAT, 2.0 kg/ha): 92%
% Weed Control (Eo) ([4]; 10 DAT, .25 kg/ha): 82%
% Weed Control (Eo) ([4]; 10 DAT, .5 kg/ha): 88%
% Weed Control (Ci) (Ci (Cyperus iria); 5 DAT, 1.0 kg/ha): 100%
% Weed Control (Ci) (Ci (Cyperus iria); 5 DAT, 2.0 kg/ha): 95%
% Weed Control (Ci) (Ci (Cyperus iria); 5 DAT, .25 kg/ha): 85%
% Weed Control (Ci) (Ci (Cyperus iria); 5 DAT, .5 kg/ha): 95%
% Weed Control (Ci) (Ci (Cyperus iria); 10 DAT, 1.0 kg/ha): 97%
% Weed Control (Ci) (Ci (Cyperus iria); 10 DAT, 2.0 kg/ha): 93%
% Weed Control (Ci) (Ci (Cyperus iria); 10 DAT, .25 kg/ha): 74%
% Weed Control (Ci) (Ci (Cyperus iria); 10 DAT, .5 kg/ha): 98%
Yield (% of H.W. Check) (Dapog transplanted rice [5]): 182% and 177% and 139% and 104% and 93% and 98% and 113%
rice yield vs hand weeded check (Dapog transplanted rice [5]): statistically similar to the hand weeded check
yield in words (Dapog transplanted rice [5]): outstanding
Crop Injury (%) (Dapog transplanted rice [6]; 5 DAT, 1.0 kg/ha): 40%
Crop Injury (%) (Dapog transplanted rice [6]; 5 DAT, 2.0 kg/ha): 50%
Crop Injury (%) (Dapog transplanted rice [6]; 5 DAT, .25 kg/ha): 0%
Crop Injury (%) (Dapog transplanted rice [6]; 5 DAT, .5 kg/ha): 0%
Crop Injury (%) (Dapog transplanted rice [6]; 14 DAT, 1.0 kg/ha): 0%
Crop Injury (%) (Dapog transplanted rice [6]; 14 DAT, 2.0 kg/ha): 80%
Crop Injury (%) (Dapog transplanted rice [6]; 14 DAT, .25 kg/ha): 0%
Crop Injury (%) (Dapog transplanted rice [6]; 14 DAT, .5 kg/ha): 0%
rice injury in words (Dapog transplanted rice [6]; higher rates, 5 DAT): considerable rice injury
Soil Longevity ([7]; 5 lbs/Ac (5.605 kg/ha), Ray silt loam): 29 Weeks
residual preemergence activity longer than Herbicide B ([7]; equal rates, 5 lbs/Ac): about 50%
latest/optimum application stage of weeds ([8]; field tests): 2-2.5 leaf stage
control of undesirable vegetation ([8]; monocotyledons and dicotyledons): fair to excellent control
herbicidal activity in transplanted rice ([8]; presence of transplanted rice): superior herbicidal activity
selectivity vs Herbicide B in transplant rice ([8]; transplant rice cultures): more selective
